Test results taken from patent US10350218B2, “Isoquinolidinobenzodiazepine (IQB)-1(chloromethyl)-2,3-dihydro-1H-benzo[e]indole (CBI) dimers” (priority 2016, dated 2019).
Converted amounts (≈) assume the structure as drawn.

Columns and labels:
AML2 cell line = test: Cell killing assay (cytotoxicity) of IQB-CBI dimers, AML2; format: cell-based; settings: 72 h; AML2 cells; 3-day incubation
Procedure: (§1) Cytotoxicity of D801, D803, D05, D807, D809, D811, D813, D815 and D817 were tested against AML2 and HL60 cell lines. Cell killing assay was performed after 3-day incubation with various IQB-CBI dimers.

HL60 cell line = test: Cell killing assay (cytotoxicity) of IQB-CBI dimers, HL60; format: cell-based; settings: Homo sapiens, HL-60, 72 h; HL60 cells; 3-day incubation
Procedure: as §1

[1] = molecular target: T1, human interleukin 1 receptor accessory protein (IL1RAP) (human, UniProt Q9NPH3 21-570); test: flow cytometry (MFI, anti-human APC secondary) on HL-60, EOL1 and SK-MEL-5 cells expressing IL1RAP
T1 construct: The target is carried by human cell lines: EOL1 at high copy number, HL-60 and SK-MEL-5 at low copy number
T1 sequence: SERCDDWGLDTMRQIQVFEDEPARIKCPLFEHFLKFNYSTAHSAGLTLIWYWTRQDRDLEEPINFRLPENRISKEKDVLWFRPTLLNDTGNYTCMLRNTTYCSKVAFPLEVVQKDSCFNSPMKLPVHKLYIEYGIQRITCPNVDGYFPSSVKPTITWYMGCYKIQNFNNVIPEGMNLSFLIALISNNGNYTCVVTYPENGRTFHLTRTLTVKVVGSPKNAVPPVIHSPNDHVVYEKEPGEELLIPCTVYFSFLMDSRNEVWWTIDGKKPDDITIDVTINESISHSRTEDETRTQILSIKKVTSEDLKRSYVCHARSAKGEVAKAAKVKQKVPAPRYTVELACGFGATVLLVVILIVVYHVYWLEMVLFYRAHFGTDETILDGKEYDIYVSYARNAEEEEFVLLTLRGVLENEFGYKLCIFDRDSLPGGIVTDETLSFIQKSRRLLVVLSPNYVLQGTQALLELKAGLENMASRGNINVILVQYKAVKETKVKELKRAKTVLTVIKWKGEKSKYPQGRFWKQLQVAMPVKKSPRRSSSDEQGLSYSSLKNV
Description: FIGS. 15 and 16 show binding, as a function of mean fluorescent intensity, of humanized (hu3G7) or chimeric (Chi3G7) anti-IL1RAP antibody to various cell lines. HL-60 cells (human promyelocytic leukemia cells), EOL1 cells (human eosinophilic leukemia cells) and SK-MEL-5 cells (human melanoma cell line) express IL1RAP, and EOL1 cells do so with high expression. C0 antibody is a non-binding control IgG1. D212 is a composition having the formula: […]
The cells were resuspended in binding buffer (PBS, 2% FBS)) containing 5% NHS (normal human serum) to 2 ×10^6 cells/mL. To 50 µL of cells, 50 µL of primary antibody/ADC was added and incubated at 4° for 30 min. After incubation, cells were wasked with binding buffer 2 times and then resuspended and incubated with second antibody (anti-human APC, 1:400 in the binding buffer) at 4° for 30 min. Cells were washed with binding buffer and resuspended in 200 uL of binding buffer with propidium iodide. Cells were immediately applied to flow cytometry for analysis. Mean fluorescence intensity (MFI) of the stained sample was measured.

COc1cc2c(cc1OCCCCCC(=O)N1CC(CCl)c3c1cc(O)c1ccccc31)N=C[C@@H]1Cc3ccccc3CN1C2=O (stereo partly drawn) [D813, (6aS)-3-((6-(1-(chloromethyl)-5-hydroxy-1,2-dihydro-3H-benzo[e]indol-3-yl)-6-oxohexyl)oxy)-2-methoxy-7,12-dihydrobenzo[5,6][1,4]diazepino[1,2-b]isoquinolin-14(6aH)-one]
IC50 (AML2 cell line): 0.00028 ng/mL (≈ 0.000439 nM) | IC50 (HL60 cell line): 0.00072 ng/mL (≈ 0.00113 nM)

B1: humanized, cys-substituted (S156C) anti-IL1RAP antibody 3G7 (hu3G7), tested as antibody and as IQB-CBI antibody-drug conjugates (antibody, human IgG1, kappa, V domains shown)
VH: EVQLVQSGAEVKKPGASVKISCKASGYTFTNYGMHWVRQAPGQGLEWMGWINTYTGEPTYAQKFQGRFTFTLDTSTSTAYLEIRSLRSDDTAVYYCARYYGNFDYWGQGTLLTVSS
VL: EIVMTQSPATLSVSPGERATLSCRASQSISNNLHWYQQKPGQAPRLLIYYASQSISGIPARFSGSGSGTEFTLTISSLQSEDFAVYYCQQSHNWPHTFGQGTKLEIKR
modifications: IQB-CBI dimer linker-payload (D816, D818, D820, D822, D824, D826 or D828) attached by maleimide to the substituted cysteine (S156C); DAR 1.7-2.0
notes: also called 3G7-S156C-CYSMAB; hu3G7-IQB-CBI
binding result [1]: binds

B2: chimeric, cys-substituted (S156C) anti-IL1RAP antibody 3G7 (Chi3G7; human constant domain, mouse variable domain), tested as antibody and as IQB-CBI … (antibody, V domains shown)
VH: QIQLVQSGPELKKPGETVKISCKASGYTFTNYGMHWVKQSPGEGLKWMGWINTYTGEPTYADDFKGRFGFSLETSASSAYLQINDLKNEDMATYFCARYYGNFDYWGQGTTLTVSS
VL: DIVLTQSPATLSVTPGDSVSLSCRASQSISNNLHWYQQKSHESPRLLIKYASQSISGIPSRFSGSGSGTDFTLSINSVETEDFGVYFCQQSHNWPHTFGGGTKLEIKR
modifications: IQB-CBI dimer linker-payload (D816, D818, D820, D822, D824, D826 or D828) on the substituted cysteine S156C of the heavy chain constant region (constant region sequence not given)
notes: also called Chi3G7-(IQB-CBI) ADC; Chi3G7-CLT-(IQB-CBI) ADC
binding result [1]: binds
